Test results taken from paper PMC8121762, “Peptidomics of enteroendocrine cells and characterisation of potential effects of a novel preprogastrin derived-peptide on glucose tolerance in lean mice” (Peptides, 2021).
Entries after “also recorded” stand apart in the source; their conditions may differ. Like-named read-outs stand apart in the source and are kept apart here. Where a SMILES comes first, the peptide text is derived from it. [ ]: non-standard residue; d: D form. pGlu = O=C1CC[C@@H](C(=O)O)N1

What was measured:
[1] = tested on: phosphorylated-AKT (pAKT); assay: Post-mortem assessment of insulin sensitivity (pAKT / total-AKT, MSD kits); assay type: in vivo, mouse; conditions: DIO mice, 28 days after pump surgery, 15 min after 0.75 U/kg insulin challenge; treatment vs vehicle
Description: At the end of the 3rd osmotic pump study, mice were given a 0.75 U/kg insulin challenge and culled after 15 min. The liver, white adipose tissue (WAT) and skeletal muscle were dissected out and snap frozen in liquid nitrogen and stored at −70 °C until analysis.
50−100 mg pieces of WAT, liver and skeletal muscle were homogenised in MSD (Rockville, MD, USA) lysis buffer with various protease inhibitors supplied by MSD and Qiagen metal bead. Homogenised tissue was allowed to rest at 4 °C for 2 h to allow protein solubilisation and then centrifuged (10 000 g, 10 min, 4 °C). Supernatants were aspirated and stored at -70 °C till analysis. Protein content of all homogenised tissue samples was assessed using a Pierce BCA protein assay kit (Thermo Fisher Scientific) according to the manufacturer’s instructions.
Tissue homogenates were diluted in MSD lysis buffer to the same protein content. Total and phosphorylated-AKT (pAKT) were quantified using respective kits from MSD (total-AKT kit catalogue number: K150MOD-1, pAKT (Ser473) kit catalogue number: K151CAD-1) according to the manufacturer’s instructions.
Fig. 8 Phosphorylated-AKT (pAKT) expressed as a percentage of total AKT in liver (A), skeletal muscle (B) and white adipose tissue (WAT) (C) 15 min after a 0.75 U/kg insulin challenge. (D) Body weights vs pAKT as a percentage of total-AKT. […]

[2] = Pharmacokinetics studies in mice (i.v. and s.c. bolus, plasma LC–MS/MS); assay type: in vivo; conditions: mouse; for AUC: tail vein blood over 90 min
Description: Male and female mice aged between 12–18 weeks old were used for these studies. Gast p59−79, ChgA 435−462a and Sst 25−36 were administered intravenously (i.v.) at 1 mg/kg and subcutaneously (s.c.) at various doses (see Fig. 7A, B and C for details on specific doses for each peptide). Blood samples were collected using EDTA coated microvette tubes (Starsedt, Leicester, UK) from the tail vein at various time points over 90 min. Blood was centrifuged (2000 g, 10 min, 4 °C) and the plasma separated. A 0.1 M sodium citrate (Sigma-Aldrich) buffer (adjusted to pH 3 with citric acid (Sigma-Aldrich)) was added to the plasma at a dilution of 1 in 10 to prevent degradation of Gast p59−79 and Sst 25−36. Plasma was stored -70 °C till extraction.
On the day of analysis, plasma samples were thawed, spiked with a stable isotope labelled version of Gast p59−79, ChgA 435−462a or Sst 25−36, and crashed with 200 μL 80 % ACN. After centrifuging, supernatants were removed and dried under gaseous nitrogen at 40 °C using a SPE Dry evaporator system (Biotage, Upsalla, Sweden). SPE was performed as described previously.
A Xevo TQ-XS triple quadrupole mass spectrometer coupled to H-class Aquity UPLC system enabled high throughput and targeted sample analysis. The column used was a Waters HSS T3 2.1 × 50 mm column at 60 °C and flowing at 350 μL/min. LC–MS/MS analysis was performed using positive ESI with a spray voltage of 3 kV, desolvation temperature 600°C, gas flow rate 1000 L/h and cone voltage of 40 V. Solvent A was 0.1 % FA in water (v/v) and Solvent B was 0.1 % FA in ACN (v/v). Each sample (40 μL per sample) was injected onto the column for 30 s with starting conditions set at 90 % A and 10 % B before the % B was increased to 50 % over the course of 3.5 min. The column was flushed with 90 % B for 1.5 min before initial conditions were restored. Total run time per sample was 5.5 min. Table 1 details the specifications used to quantify Gast p59−79, ChgA 435−462a, Sst 25−36 and their stable isotope labelled versions on a Xevo TQ-XS mass spectrometer.
Raw data files obtained on the Xevo TQ-XS triple quadrupole mass spectrometer were analysed using TargetLynx XS v4.2 software (Waters). Peptides were quantified by integrating the corresponding peaks and normalised to an internal standard if available. For pharmacokinetics studies, the concentration of peptide was estimated by comparing against a calibration line. SAAM II v2.2.1 (The Epsilon Group) with a Rosenbrock integrator and no maximum number of iterations was used to create a model for Gast p59−79 distribution and elimination upon single dose administration to mice.

[3] = tested on: diet-induced obese mice (DIO); assay: Osmotic pump study 3: IP GTT, OGTT and ITT in diet-induced obese mice; assay type: in vivo, mouse; conditions: vs vehicle
Description: Three studies were performed to assess the in vivo efficacy of the ChgA 435−462a and Gast p59−79 (see Figure legends for specifics of each study). Peptides were administered by osmotic pumps implanted subcutaneously under isoflurane anaesthesia. Food intake was assessed using BioDaq (Research Diets) automated food intake cages. Intraperitoneal (IP) glucose tolerance tests (GTT) were performed by administering a 2 g/kg challenge of glucose and measuring blood glucose levels from the tail vein whereas oral GTT (OGTT) were performed using 1 g/kg glucose challenge. Insulin tolerance tests (ITT) were performed by administering a 0.75 U/kg dose of insulin IP to the mice and assessing blood glucose levels at 15, 30, 45, 60, 90 and 120 min post-insulin challenge.
Fig. 7 In vivo characterisation of novel peptides. (A-C) PK data of ChgA 435-462a, Gast p59-79, Sst 25-36. (D-G) Data from 1st osmotic pump study where n = 5/group. […] Body weights (E) and food intake (D) were measured throughout the study. Week 0 and day -7 represent baseline data prior to treatment onset. Glucose tolerance was assessed every 7 days after surgery via an IP GTT using a 2 g/kg glucose challenge. Results from IP GTT on day 28 shown in (F, G). Statistical analysis performed using Kruskal-Wallis test with post-hoc Dunn tests. (H, I) Results from osmotic pump study 2 where n = 8/group. Mice singly housed and infused with either Gast p59-79 or vehicle for 7 days. 2 g/kg IP GTT performed on day 7 and results shown in H and I. Statistical analysis performed using T test. (J-P) Results from osmotic pump study 3 where n = 7/group. Mice singly housed and infused with either Gast p59-79 or vehicle for 7 days. 2 g/kg IP GTT performed on day 7 (J, K) and 1 g/kg OGTT performed on day 14 (L, M). 0.75 U/kg ITT performed on day 21 (N, O). Body weights vs AUC during ITT on day 21 (P). Error bars represent SD. *P < 0.05, **p < 0.01, ***p < 0.005.

CC[C@H](C)[C@H](NC(=O)[C@H](Cc1ccccc1)NC(=O)[C@H](Cc1c[nH]cn1)NC(=O)[C@H](CCC(N)=O)NC(=O)[C@@H]1CCCN1C(=O)CNC(=O)[C@H](CCC(N)=O)NC(=O)[C@@H]1CCCN1C(=O)CNC(=O)[C@H](CC(C)C)NC(=O)[C@@H]1CCC(=O)N1)C(=O)N[C@@H](C)C(=O)N[C@@H](CC(=O)O)C(=O)N[C@@H](CC(C)C)C(=O)N[C@@H](CO)C(=O)N[C@@H](CCCCN)C(=O)N[C@@H](CCCCN)C(=O)N[C@@H](CCC(N)=O)C(=O)N[C@@H](CCCNC(=N)N)C(=O)N1CCC[C@H]1C(=O)N[C@@H](CCCNC(=N)N)C(=O)O [Gast p59−79] ([pGlu]LGPQGPQHFIADLSKKQRPR-OH; C-terminus assumed)
percentage of pAKT (of total AKT) in liver, WAT and skeletal muscle [1]: No effect
AUC ([2]; both sexes, C57BL/6 N J, iv, 1 mg/kg, plasma LC–MS/MS): 503 ng·h/mL
Clearance ([2]; both sexes, C57BL/6 N J, plasma, iv, i.v., 1 mg/kg, read-out: Clearance (converted)): 0.332
AUC ([2]; both sexes, C57BL/6 N J, sc, 10 mg/kg, plasma LC–MS/MS): 558 ng·h/mL
half-life ([2]; both sexes, C57BL/6 N J, sc, administered subcutaneously, plasma LC–MS/MS): 18.1 min
mass delivery rate required to obtain steady state concentration of 1 nM ([2]; estimated from PK data (SAAM II model), osmotic pump infusion): 0.77 mg/kg/day
Clearance ([2]; s.c., 10 mg/kg): 0.298 mL/min/kg
Bioavailability (%) ([2]; s.c., 10 mg/kg, plasma LC–MS/MS): 110%
bioavailability when administered subcutaneously (in words) ([2]; s.c., text summary of table S1): good bioavailability
AUC during ITT ([3]; 0.75 U/kg ITT day 21, n = 7/group, significant effect of body weight on AUC (p = 0.009), two-way ANOVA): also evident in the AUCs (p = 0.011)
blood glucose levels in ITT ([3]; 0.75 U/kg insulin IP on day 21, n = 7/group, confounded by body weight): differed at 90 and 120 min post-insulin challenge; also recorded: appeared to slow glucose normalisation following an ITT
glucose tolerance (IP GTT and OGTT) in DIO mice ([3]; osmotic pump, 2 g/kg IP GTT day 7, 1 g/kg OGTT day 14, n = 7/group, confounded by weight loss): did not suggest that Gast p59−79 affected glucose tolerance
